Counter-ions that a name gives are not always drawn.

We go through five molecules from patent US7618978B2, “Amides as BACE inhibitors” (Eli Lilly and Company, priority 2004, dated 2009).

The target of one experiment is T1, human BACE1(1-460):Fc (Homo sapiens, UniProt P56817).
T1 construct: made in house; host or cells: HEK293 cells, transient transfection, conditioned medium
Kind of experiment: BACE1 mcaFRET Assay. The class given is biochemical. Conditions: FRET substrate 15 micromolar, pH 4.6, 16 to 24 hours at room temperature. As to the method:
(§1) For in vitro enzymatic and cellular assays, test compounds are prepared in DMSO to make up a 10 millimolar stock solution. The stock solution is serially diluted (in a 1:3, 1:2.5, 1:2, or 1:1 dilution series) in DMSO to obtain a final compound concentration of 10 millimolar to 1 micromolar at the first highest concentration of a ten-point dilution curve in a 96-well round-bottom plate right before conducting the in vitro enzymatic and whole assays.
Serial dilutions of test compounds are prepared as described above. Two microliter of each dilution is added to each well on row A to H of a corresponding low protein binding black plate to which 50 microliter of 50 millimolar ammonium acetate, pH 4.6, 1 mM Triton X-100, 1 mg/ml Bovine Serum Albumin, and 15 micromolar of FRET substrate (sequence: (MCA)-S-E-V-N-L-D-A-E-F-R-K(Dnp)-R-R-R-R-NH2) for BACE1 activity are pre-added. The content is mixed well on a plate shaker for 10 min. Fifty microliter of two hundred picomolar human BACE1(1-460):Fc (See: Vasser, et al., Science, 286, 735-741 (1999)) in the same reaction buffer described above is added to the plate containing substrate and test compounds to initiate the reaction. The relative fluorescence unit (RFU) of the mixture at time 0 is recorded at excitation wavelength 330 nm and emission wavelength 400 nm, after brief mixing on a plate shaker. The reaction plate is covered with aluminum foil and kept in a dark humidified oven at room temperature for 16 to 24 hours. The RFU at the end of incubation is recorded with the same excitation and emission setting. The difference of the RFU at time 0 and the end of incubation represents the activity of BACE1 under the compound-treatment. The 10-point inhibition curve was plotted and fitted with the four-parameter logistic equation to obtain the EC50 and IC50 values. (See: Sinha, et al., Nature, 402, 537-540 (2000)). […] Data for selected compounds of the invention tested in this assay are contained in the following table.
Both human (accession number: AF190725) and murine (accession number: NM_011792) BACE1 were cloned from total brain cDNA by […]. The nucleotide sequences corresponding to amino acid sequences #1 to 460 were inserted into the cDNA encoding human IgG1 (Fc) polypeptide (Vassar et al. 1999). This fusion protein of BACE1(1-460) and human Fc, named huBACE1:Fc, was constructed into the pJB02 vector. Human BACE1(1-460):Fc (huBACE1:Fc) and murine BACE1(1-460):Fc (muBACE1:Fc) were transiently expressed in HEK293 cells. 250 μg cDNA of each construct was mixed with Fugene 6 and added to 1 liter HEK293 cells. Four days after the transfection, conditioned media were harvested for purification. Purification of huBACE1:Fc and muBACE1:Fc.
Conditioned media of […] cell transiently transfected with huBACE1:Fc or muBACE1:Fc cDNA were collected. Cell debris was removed by filtering the conditioned media through 0.22 μm sterile filter. 5 ml Protein A-agarose (bed volume) was added to 4 liter conditioned media. This mixture was gently stirred overnight at […]. The Protein A-agarose resin was collected and packed into a low-pressure chromatography column. The column was washed with 20× bed volumes of PBS at flow rate 20 ml per hour. Bound huBACE1:Fc or muBACE1:Fc protein was eluted with 50 mM acetic acid, pH 3.6, at flow rate 20 ml per hour. […] The purity of final product was assessed by electrophoresis in 4-20% Tris-Glycine SDS-PAGE. […]

Another experiment concerns the target T2, beta-secretase activity (Homo sapiens, UniProt P56817).
T2 construct: endogenous in cells; host or cells: HEK293p (ATCC CRL-1573) stably expressing human APP751sw or APP751wt
Kind of experiment: Whole Cell Assay for Measuring the Inhibition of Beta-Secretase Activity. In kind it is cell-based. Particulars: HEK293/APP751sw or HEK293/APP751wt cells, 4 to 6 hours at 37C, Abeta, sAPPbeta-lowering effect by sandwich ELISA. As to the method: as §1
The routine whole cell assay for the measurement of inhibition of beta-secretase activity utilizes the human embryonic kidney cell line HEK293p (ATCC Accession No. CRL-1573) stably expressing a human APP751 cDNA containing the naturally occurring double mutation […] to Asn651Leu652, commonly called the Swedish mutation (noted HEK293/APP751sw) and shown to overproduce Abeta (Citron et al., 1992, Nature 360:672-674). Human embryonic kidney HEK293p cells stably expressing wild-type human APP751 cDNA (noted HEK293/APP751wt) are also used to assess the inhibition of beta-secretase activity. In vitro Aβ reduction assays have been described in the literature (See: Dovey, et al., Journal of Neurochemistry, 76, 173-181 (2001); Seubert, et al., Nature, 361, 260 (1993); and Johnson-Wood, et al., Proc. Natl. Acad. Sci. USA, 94, 1550-1555 (1997))
Cells (HEK293/APP751sw or HEK293/APP751wt, at 3×10^4 cells/well, containing 200 microliters culture media, DMEM containing 10% FBS) are incubated at 37C for 4 to 6 hours in the presence/absence of inhibitors (diluted in DMSO) at the desired concentration. At the end of the incubation, conditioned media are analyzed for beta-secretase activity, for example, by analysis of cleavage fragments, Abeta peptide and sAPPbeta. Abeta peptides are measured by a sandwich ELISA, using monoclonal 266 as a capture antibody and biotinylated 3D6 as reporting antibody. The sAPPbeta fragments are analyzed by a sandwich ELISA, using monoclonal 8E5 antibody as a capture antibody and rabbit polyclonal 192sw or 192wt as a reporting antibody. Note that sAPPbeta is the cleavage product of full length APP by BACE 1. The concentration of sAPPbeta released in the conditioned media following the compound treatment corresponds to the activity of BACE1 under such conditions. The 10-point inhibition curve was plotted and fitted with the four-parameter logistic equation to obtain the EC50 and IC50 values for the Abeta, sAPPbeta-lowering effect. Data for selected compounds of the invention tested in this assay are contained in the following table.

T1 sequence (P56817 22-460): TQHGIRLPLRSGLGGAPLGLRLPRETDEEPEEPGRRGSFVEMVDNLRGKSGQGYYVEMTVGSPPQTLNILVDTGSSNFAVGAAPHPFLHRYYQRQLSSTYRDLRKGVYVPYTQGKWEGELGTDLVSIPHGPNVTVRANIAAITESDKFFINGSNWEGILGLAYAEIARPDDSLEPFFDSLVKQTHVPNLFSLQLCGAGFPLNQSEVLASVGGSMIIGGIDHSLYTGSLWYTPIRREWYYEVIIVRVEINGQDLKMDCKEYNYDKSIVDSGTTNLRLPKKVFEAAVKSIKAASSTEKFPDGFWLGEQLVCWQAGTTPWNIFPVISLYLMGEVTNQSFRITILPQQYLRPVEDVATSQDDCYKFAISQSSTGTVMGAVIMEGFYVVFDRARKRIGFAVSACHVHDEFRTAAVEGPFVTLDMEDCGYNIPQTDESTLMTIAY
T2 sequence (P56817 46-501): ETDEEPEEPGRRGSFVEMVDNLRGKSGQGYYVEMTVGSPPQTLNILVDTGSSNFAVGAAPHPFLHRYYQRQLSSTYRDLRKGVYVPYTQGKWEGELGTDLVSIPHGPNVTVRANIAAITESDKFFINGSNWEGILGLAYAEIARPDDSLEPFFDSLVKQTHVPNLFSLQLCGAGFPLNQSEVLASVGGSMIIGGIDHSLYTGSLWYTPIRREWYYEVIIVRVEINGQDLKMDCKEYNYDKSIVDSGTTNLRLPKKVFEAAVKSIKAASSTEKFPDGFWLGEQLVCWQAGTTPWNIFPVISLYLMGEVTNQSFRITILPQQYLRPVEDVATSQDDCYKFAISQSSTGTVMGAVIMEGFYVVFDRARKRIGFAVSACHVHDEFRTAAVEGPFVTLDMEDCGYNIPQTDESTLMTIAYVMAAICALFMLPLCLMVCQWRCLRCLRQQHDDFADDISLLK

As to `CCC(C)Nc1cc(C(=O)NC(Cc2ccccc2)C(O)C2NCCN(C)C2=O)cc(N(C)S(C)(=O)=O)n1` [Example 3, N-[1-(S)-Benzyl-2-hydroxy-2-(4-methyl-3-oxopiperazin-2-yl)-ethyl]-2-(S)-sec-butylamino-6-(methylsulfonyl-methylamino)-isonicotinamide hydrochloride], the IC50 (as a rule, the concentration that inhibits the measured activity by half) stood at 0.001 µM at human BACE1(1-460):Fc and 0.041 µM against beta-secretase activity. With `CCC(C)Nc1cc(C(=O)N[C@@H](Cc2ccccc2)[C@@H](O)[C@H]2CN(C(C)=O)CCN2)cc(N(C)S(C)(=O)=O)n1` (stereo partly drawn) [Example 7, N-[(1S,2R)-2-(R)-(4-Acetylpiperazin-2-yl)-1-benzyl-2-hydroxyethyl]-2-sec-butylamino-6-(methanesulfonyl-methylamino)-isonicotinamide hydrochloride], the IC50 against human BACE1(1-460):Fc came to 0.003 µM; on beta-secretase activity, 0.045 µM.

Take `CC(=O)NC(Cc1cc(F)cc(F)c1)C(O)C1CCC(OCc2ccccc2)CN1` [Example 19, N-{(1S,2R)-2-[(5R,2R)-5-Benzyloxy-2-piperidin-2-yl]-1-(3,5-difluoro-benzyl)-2-hydroxy-ethyl}-acetamide hydrochloride]: the values for the IC50 against human BACE1(1-460):Fc and at beta-secretase activity were 13.1 µM and 17.1 µM, respectively. For the molecule `CC(=O)N[C@@H](Cc1cc(F)cc(F)c1)[C@H](O)[C@H]1CC[C@@H](OCCC(C)C)CN1` [Example 55, N-(1S, 2R)-{1-(3,5-Difluoro-benzyl)-2-hydroxy-2-[(5R,2R)-5-(3-methyl-butoxy)-piperidin-2-yl]-ethyl}-acetamide hydrochloride], the IC50 against human BACE1(1-460):Fc was determined as 6.9 µM; against beta-secretase activity, 6.1 µM. Turning to `CC(=O)N[C@@H](Cc1cc(F)cc(F)c1)[C@H](O)[C@H]1CC[C@@H](OCC(C)C)CN1` [Example 58, N-(1S,2R)-{1-(3,5-Difluoro-benzyl)-2-hydroxy-2-[(5R,2R)-5-isobutoxy-piperidin-2-yl]-ethyl}-acetamide hydrochloride], on human BACE1(1-460):Fc, the IC50 came out at 6.8 µM.
